According to patent US9999616B2 (ZENITH EPIGENETICS LTD., priority 2013, dated 2018):
pIC50: −log10 of the molar value.

Tests used:
[1] = tested on: c-myc in Human AML MV4-11 cells; assay: Inhibition of cMYC expression (mRNA, real-time PCR) in MV4-11 cells; format: cell-based; details: 3 h treatment, cMYC mRNA by real-time PCR
Method in brief: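 MV4-11 cells in IMDM with 10% FBS were treated with increasing compound concentrations (DMSO 0.1%) for 3 h at 37 °C, in triplicate. Isolated mRNA was quantified by one-step TaqMan RT-qPCR, cMYC Ct normalized to cyclophilin, and fold expression given relative to DMSO control.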

[2] = tested on: Human AML MV-4-11 cells; assay: Inhibition of cell proliferation in MV4-11 cells (CellTiter Aqueous One); format: cell-based; details: for pIC50: MV4-11, 72 h; for Cell Proliferation activity: 72 h
Method in brief: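 MV4-11 cells, 5×10^4 per well in IMDM with 10% FBS, were exposed to increasing compound concentrations or 0.1% DMSO for 72 h at 37 °C in triplicate. Viability was read by MTS (CellTiter Aqueous One) absorbance at 490 nm after 3-4 h. IC50 was derived from background-corrected signal relative to DMSO.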

[3] = tested on: hIL-6 mRNA; assay: Inhibition of hIL-6 mRNA transcription in LPS-stimulated U937 macrophages; format: cell-based, Human; details: 1 h pretreatment, LPS 3 h; for pIC50: Homo sapiens, U-937, PMA-differentiated U937 cells, read-out: IL-6 activity
Experimental: Human leukemic monocyte lymphoma U937 cells (CRL-1593.2) were plated at a density of 3.2×10^4 cells per well in a 96-well plate in 100 μL RPMI-1640 containing 10% FBS and penicillin/streptomycin, and differentiated into macrophages for 3 days in 60 ng/mL PMA ([…]) at 37° C. in 5% CO2 prior to the addition of compound. The cells were pretreated for 1 h with increasing concentrations of test compound in 0.1% DMSO prior to stimulation with 1 ug/mL lipopolysaccharide from Escherichia coli. Triplicate wells were used for each concentration. The cells were incubated at 37° C., 5% CO2 for 3 h before the cells were harvested. At time of harvest, media was removed and cells were rinsed in 200 μL PBS. Cells were harvested using the mRNA Catcher PLUS kit according to manufacturer's instructions. The eluted mRNA was then used in a one-step quantitative real-time PCR reaction using components of the RNA UltraSense™ One-Step Kit (Life Technologies) together with Applied Biosystems TaqMan® primer-probes for hIL-6 and Cyclophilin. Real-time PCR plates were run on a ViiA™7 real time PCR machine (Applied Biosystems), data was analyzed, normalizing the Ct values for hlL-6 to an internal control, prior to determining the fold expression of each sample, relative to the control.

[4] = biological target: Brd4 bromodomain 1 (BRD4(1)) (Homo sapiens, UniProt O60885); assay: Inhibition of tetra-acetylated histone H4 binding to Brd4 bromodomain 1, measured by FRET (HTRF); set-up: made in house; host or cells: E. coli BL21(DE3); details: 2 h at room temperature
Method in brief: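 Inhibition was read as a drop in 665 nm relative to 620 nm HTRF signal after 2 h at room temperature, with IC50 from dose-response curves in duplicate wells. Reactions held 200 nM E. coli-expressed His-tagged bromodomain and 25-50 nM biotinylated tetra-acetylated histone H4 peptide. Buffer was 30 mM HEPES pH 7.4 with KF, CHAPS, BSA and 0.2% DMSO.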

CC(=O)Nc1ccccc1-c1cc(-c2c(C)noc2C)cc2[nH]c(C)nc12 [Example Compound 64, N-(2-(6-(3,5-dimethyl-isoxazol-4-yl)-2-methyl-1H-benzo[d]imidazol-4-yl)phenyl) acetamide]
pIC50 [1]: 5.52 to 6.52 | pIC50 [2]: 5.52 to 6.52 | pIC50 [3]: ≥ 6.52 | pIC50 [4]: ≥ 6.52

Cc1noc(C)c1-c1cc(-c2cccc(C(N)=O)c2)c2nc[nH]c2c1 [Example Compound 36, 3-(6-(3,5-dimethyl-isoxazol-4-yl)-1H-benzo[d]imidazol-4-yl)benzamide]
pIC50 [1]: 5.52 to 6.52 | pIC50 [2]: 5.52 to 6.52 | pIC50 [3]: 5.52 to 6.52 | pIC50 [4]: ≥ 6.52

Cc1nc2c(-c3cc(F)ccc3C#N)cc(-c3c(C)noc3C)cc2[nH]1 [Example Compound 94, 2-(6-(3,5-dimethyl-isoxazol-4-yl)-2-methyl-1H-benzo[d]imidazol-4-yl)-4-fluoro-benzonitrile]
pIC50 [1]: 5.52 to 6.52 | pIC50 [2]: 5.52 to 6.52 | pIC50 [3]: 5.52 to 6.52 | pIC50 [4]: ≥ 6.52

Cc1noc(C)c1-c1cc(Nc2cccc(F)c2)c2nc[nH]c2c1 [Example Compound 32, 6-(3,5-dimethyl-isoxazol-4-yl)-N-(3-fluorophenyl)-1H-benzo[d] imidazol-4-amine]
pIC50 [1]: 5.52 to 6.52 | pIC50 [2]: 5.52 to 6.52 | pIC50 [3]: 5.52 to 6.52 | pIC50 [4]: ≥ 6.52

COc1c(-c2c(C)noc2C)cc2[nH]c(C)nc2c1-c1c(C)noc1C [Example Compound 227, 4,4′-(5-methoxy-2-methyl-1H-benzo[d]imidazole-4,6-diyl)bis(3,5-dimethylisoxazole)]
pIC50 [1]: 5.52 to 6.52 | pIC50 [2]: 4.52 to 5.52 | pIC50 [3]: 5.52 to 6.52 | pIC50 [4]: 5.52 to 6.52

Cc1nc2c(N3CCC3=O)cc(-c3c(C)noc3C)cc2[nH]1 [Example Compound 147, 1-(6-(3,5-dimethyl-isoxazol-4-yl)-2-methyl-1H-benzo[d]imidazol-4-yl)azetidin-2-one]
pIC50 [1]: 5.52 to 6.52 | Cell Proliferation activity [2]: Not active | pIC50 [3]: 5.52 to 6.52 | pIC50 [4]: 5.52 to 6.52

Cc1nn(C)cc1-c1cc(-c2c(C)noc2C)cc2cn[nH]c12 [Example Compound 120, 4-(7-(1,3-dimethyl-1H-pyrazol-4-yl)-1H-indazol-5-yl)-3,5-dimethyl isoxazole]
pIC50 [1]: ≥ 6.52 | pIC50 [2]: 5.52 to 6.52 | pIC50 [3]: ≥ 6.52 | pIC50 [4]: ≥ 6.52

COCc1ccccc1-c1cc(-c2c(C)noc2C)cc2[nH]c(C)nc12 [Example Compound 117, 4-(4-(2-(methoxy-methyl)phenyl)-2-methyl-1H-benzo[d]imidazol-6-yl)-3,5-dimethyl-isoxazole]
pIC50 [1]: ≥ 6.52 | pIC50 [2]: ≥ 6.52 | pIC50 [3]: ≥ 6.52 | pIC50 [4]: ≥ 6.52

Cc1noc(C)c1-c1cc(-c2c(C)noc2C)c2nc(NC3CCOCC3)[nH]c2c1 [Example Compound 229, 4,6-bis(3,5-dimethyl-isoxazol-4-yl)-N-(tetrahydro-2H-pyran-4-yl)-1H-benzo[d] imidazol-2-amine]
pIC50 [1]: ≥ 6.52 | pIC50 [2]: 5.52 to 6.52 | pIC50 [3]: ≥ 6.52 | pIC50 [4]: ≥ 6.52

Cc1nc2c(-c3cc4ccccc4s3)cc(-c3c(C)noc3C)cc2[nH]1 [Example Compound 145, 4-(4-(benzo[b]thiophen-2-yl)-2-methyl-1H-benzo[d]imidazol-6-yl)-3,5-dimethyl isoxazole]
pIC50 [1]: 5.52 to 6.52 | pIC50 [2]: ≥ 6.52 | pIC50 [3]: 5.52 to 6.52 | pIC50 [4]: 5.52 to 6.52

CNC(=O)c1onc(C)c1-c1cc(-c2c(C)noc2C)cc2[nH]c(C)nc12 [Example Compound 67, 4-(5-(3,5-dimethyl-isoxazol-4-yl)-2-methyl-1H-benzo[d]imidazol-7-yl)-N,3-dimethyl isoxazole-5-carboxamide]
pIC50 [1]: 5.52 to 6.52 | pIC50 [2]: 4.52 to 5.52 | IL-6 activity ([3]; PMA-differentiated U937 cells): Not active | pIC50 [4]: ≥ 6.52

Cc1nc2c(-c3cc(F)ccc3C(F)(F)F)cc(-c3c(C)noc3C)cc2[nH]1 [Example Compound 80, 4-(4-(5-fluoro-2-(trifluoro-methyl)phenyl)-2-methyl-1H-benzo[d]imidazol-6-yl)-3,5-dimethyl isoxazole]
pIC50 [1]: ≥ 6.52 | pIC50 [2]: 5.52 to 6.52 | pIC50 [3]: 5.52 to 6.52 | pIC50 [4]: ≥ 6.52

COc1cccc(Nc2cc(-c3c(C)noc3C)cc3[nH]cnc23)c1 [Example Compound 33, 6-(3,5-dimethyl-isoxazol-4-yl)-N-(3-methoxy-phenyl)-1H-benzo[d] imidazol-4-amine]
pIC50 [1]: 5.52 to 6.52 | pIC50 [2]: 5.52 to 6.52 | pIC50 [3]: 5.52 to 6.52 | pIC50 [4]: ≥ 6.52

Cc1nc2c(-c3ccc4nccnc4c3)cc(-c3c(C)noc3C)cc2[nH]1 [Example Compound 153, 3,5-dimethyl-4-(2-methyl-4-(quinoxalin-6-yl)-1H-benzo[d]imidazol-6-yl)isoxazole]
pIC50 [1]: 5.52 to 6.52 | pIC50 [2]: 5.52 to 6.52 | pIC50 [3]: 5.52 to 6.52 | pIC50 [4]: ≥ 6.52

Cc1noc(C)c1-c1cc(-c2c(C)noc2C)c2nc(N3CCN(C)CC3)[nH]c2c1 [Example Compound 231, 4,4′-(2-(4-methyl-piperazin-1-yl)-1H-benzo[d]imidazole-4,6-diyl) bis(3,5-dimethylisoxazole)]
pIC50 [1]: ≥ 6.52 | pIC50 [2]: ≥ 6.52 | pIC50 [3]: ≥ 6.52 | pIC50 [4]: ≥ 6.52

Cc1nc2c(-c3c(C)nc(N)nc3C)cc(-c3c(C)noc3C)cc2[nH]1 [Example Compound 99, 5-(6-(3,5-dimethyl-isoxazol-4-yl)-2-methyl-1H-benzo[d]imidazol-4-yl)-4,6-dimethyl pyrimidin-2-amine]
pIC50 [1]: ≥ 6.52 | pIC50 [2]: ≥ 6.52 | pIC50 [3]: ≥ 6.52 | pIC50 [4]: ≥ 6.52

Cc1noc(C)c1-c1cc(Nc2ccccc2)c2nncn2c1 [Example Compound 15, 6-(3,5-dimethylisoxazol-4-yl)-N-phenyl-[1,2,4] triazolo[4,3-a]pyridin-8-amine]
pIC50 [1]: 4.52 to 5.52 | Cell Proliferation activity [2]: Not active | pIC50 [3]: 4.52 to 5.52 | pIC50 [4]: ≥ 6.52

Cc1nc2c(-c3cc(C(F)(F)F)ccc3Cl)cc(-c3c(C)noc3C)cc2[nH]1 [Example Compound 162, 4-(4-(2-chloro-5-(trifluoro-methyl)phenyl)-2-methyl-1H-benzo[d]imidazol-6-yl)-3,5-dimethyl isoxazole]
pIC50 [1]: 5.52 to 6.52 | pIC50 [2]: 5.52 to 6.52 | pIC50 [3]: 5.52 to 6.52 | pIC50 [4]: 5.52 to 6.52

Cc1nc2c(Oc3ccccc3)cc(-c3c(C)noc3C)cc2[nH]1 [Example Compound 148, 3,5-dimethyl-4-(2-methyl-4-phenoxy-1H-benzo[d]imidazol-6-yl)isoxazole]
pIC50 [1]: ≥ 6.52 | pIC50 [2]: 5.52 to 6.52 | pIC50 [3]: ≥ 6.52 | pIC50 [4]: ≥ 6.52

Cc1noc(C)c1-c1cc(-c2cccc(C#N)c2)c2nc[nH]c2c1 [Example Compound 2, 3-(6-(3,5-dimethylisoxazol-4-yl)-1H-benzo[d]imidazol-4-yl) benzonitrile]
pIC50 [1]: 5.52 to 6.52 | pIC50 [2]: 5.52 to 6.52 | pIC50 [3]: 5.52 to 6.52 | pIC50 [4]: ≥ 6.52

Cc1nc2c(-c3cccc4ccccc34)cc(-c3c(C)noc3C)cc2[nH]1 [Example Compound 138, 3,5-dimethyl-4-(2-methyl-4-(naphthalen-1-yl)-1H-benzo[d]imidazol-6-yl)isoxazole]
pIC50 [1]: 5.52 to 6.52 | pIC50 [2]: 5.52 to 6.52 | pIC50 [3]: ≥ 6.52 | pIC50 [4]: ≥ 6.52

Cc1nc2c(-c3ccc4ocnc4c3)cc(-c3c(C)noc3C)cc2[nH]1 [Example Compound 136, 5-(6-(3,5-dimethyl-isoxazol-4-yl)-2-methyl-1H-benzo[d]imidazol-4-yl)benzo[d] oxazole]
pIC50 [1]: ≥ 6.52 | pIC50 [2]: 5.52 to 6.52 | pIC50 [3]: 5.52 to 6.52 | pIC50 [4]: ≥ 6.52
